This assay addresses T1, soybean lipoxygenase LOX-1 (Glycine max, UniProt P08170).
T1 sequence (P08170 1-839): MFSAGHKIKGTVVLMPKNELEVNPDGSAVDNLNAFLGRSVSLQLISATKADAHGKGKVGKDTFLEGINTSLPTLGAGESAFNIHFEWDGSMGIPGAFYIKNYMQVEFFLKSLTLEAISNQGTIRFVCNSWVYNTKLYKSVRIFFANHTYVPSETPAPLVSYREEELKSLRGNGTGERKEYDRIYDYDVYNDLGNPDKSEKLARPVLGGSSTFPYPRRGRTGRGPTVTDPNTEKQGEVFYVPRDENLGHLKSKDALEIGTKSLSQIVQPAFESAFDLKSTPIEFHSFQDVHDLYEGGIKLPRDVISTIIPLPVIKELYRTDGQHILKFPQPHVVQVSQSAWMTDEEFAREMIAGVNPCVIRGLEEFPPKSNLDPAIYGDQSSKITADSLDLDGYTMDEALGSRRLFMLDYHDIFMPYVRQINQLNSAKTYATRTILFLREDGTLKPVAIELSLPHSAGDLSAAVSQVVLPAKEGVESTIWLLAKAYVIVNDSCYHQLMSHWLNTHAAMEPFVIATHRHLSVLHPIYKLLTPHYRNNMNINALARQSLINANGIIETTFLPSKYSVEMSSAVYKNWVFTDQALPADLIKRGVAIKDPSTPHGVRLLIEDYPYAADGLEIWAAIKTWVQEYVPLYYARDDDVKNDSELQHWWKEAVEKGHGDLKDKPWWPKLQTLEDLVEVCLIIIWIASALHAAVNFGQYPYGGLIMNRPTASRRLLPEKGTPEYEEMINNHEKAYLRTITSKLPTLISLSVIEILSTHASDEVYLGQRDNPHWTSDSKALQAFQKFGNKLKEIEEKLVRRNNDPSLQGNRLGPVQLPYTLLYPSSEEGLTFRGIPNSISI
It is filed as biochemical.

`NNC(=S)N/N=C/c1ccccc1` [DKI5, (E)-N′-benzylidenehydrazinecarbothiohydrazide] showed a half-inhibitory concentration (IC50) of 22.5 µM.
`SC1=NC(c2ccccc2)=CC(c2ccccc2)N1` (centres unmarked) [KKII5, 4,6-diphenyl-3,4-dihydropyrimidine-2(1H)-thione]: it took 19 µM to reach half-maximal inhibition (IC50).

For orientation: IC50 means the concentration that gives 50% inhibition. Read a high IC50 as weaker potency in that assay.
